# “Also recorded” adds a separate entry of the source. Like-named read-outs stand apart in the source and are kept apart here.
# Key:
# [1] = tested on: T24, MCF-7, NCI/ADR, MCF-7/VP; test: Cytotoxicity, panel of human tumor cell lines of Table 3 (text summaries)
# Text: (§2) These cell lines are resistant to anticancer drugs due to overexpression of the transport proteins P-glycoprotein or MRP1.
# MCF-7/VP cells = test: Cytotoxicity, MCF-7/VP cells that overexpress MRP1; settings: for Resistance (MCF-7/VP relative to MCF-7): MRP1
# Text: as §2
# NCI/ADR cells = test: Cytotoxicity, NCI/ADR cells that overexpress P-glycoprotein; settings: for Resistance (NCI/ADR relative to MCF-7): P-glycoprotein
# Text: as §2
# MCF-7 cells = test: Cytotoxicity, drug-sensitive MCF-7 cells
# Text: as §2
# [2] = tested on: HL-60 human promyelocytic leukemia cells; test: Flow cytometric cell cycle phase distribution; type: cell-based; settings: 24 hours treatment; for increase of the percentage of cells in the G2/M phases: HL-60; for cell cycle distribution, G2/M / cell cycle distribution, G9/G1 / cell cycle distribution, S: percentage of HL-60 cells
# Experimental: Flow cytometric analyses were used to assess the effects of Compound 1 and various antimicrotubule drugs on the cell cycle phase distributions of HL-60 human promyelocytic leukemia cells. The percentage of cells in the G2/M phases were increased approximately 2-fold by treatment of the cells for 24 hours with either TAXOL (paclitaxel), vinblastine, colchicine, or Compound 1.
# P-glycoprotein = molecular target: T1, P-glycoprotein (Homo sapiens, UniProt P08183); test: P-glycoprotein antagonism: sensitivity of NCI/ADR cells to vinblastine; type: cell-based; settings: for effect on P-glycoprotein-mediated resistance (in words): absence or presence of 50 nM vinblastine
# T1 construct: NCI/ADR cells that overexpress P-glycoprotein; endogenous in cells; host or cells: NCI/ADR cells
# Text: To determine if this is due to inhibition of drug transport activity by these proteins, the effects of these compounds on P-glycoprotein were further characterized. The effects of the compounds on the sensitivity of NCI/ADR cells to vinblastine and of MCF-7/VP cells to vincristine were examined to evaluate antagonism of P-glycoprotein and MRP1, respectively. FIGS. 4a-b present graphs of antagonism score versus concentration for P-glycoprotein and MRP1, respectively.
# The Pgp antagonism score is calculated as the percentage survival of cells in the absence of vinblastine/percentage survival in the presence of vinblastine. […] The MRP1 antagonism score is calculated as the percentage survival of cells in the absence of vincristine/percentage survival in the presence of vincristine. […] Concentrations of Compounds 1-5 above their IC50 toward MCF-7 cells are not indicated. Data for one of three similar experiments is shown.
# [3] = tested on: T24 human bladder carcinoma cells; test: Cytotoxicity, T24 cells; type: cell-based; settings: for IC50: mean ± SEM for 3 experiments
# [4] = tested on: NCI 60 human tumor cell lines; test: NCI IVCLSP growth inhibition, whole panel (text summaries); type: cell-based; settings: NCI 60 tumor panel
# Experimental: FIG. 1 presents nine compounds that were tested using the National Cancer Institute (NCI) 60 human tumor cell lines. The cells lines, which represent leukemia, melanoma, and cancers of the lung, colon, brain, ovary, breast, prostate, and kidney, are listed in Table 1.
# Compounds 1-9 were tested according to the NCI Developmental Therapeutics Program (DTP) In Vitro Cell Line Screening Project (IVCLSP). […] Methodology for testing under the IVCLSP is as follows: The human tumor cell lines of the cancer screening panel are grown in RPMI 1640 medium containing 5% fetal bovine serum and 2 mM L-glutamine. For a typical screening experiment, cells are inoculated into 96 well microtiter plates in 100 μL at plating densities ranging from 5,000 to 40,000 cells/well depending on the doubling time of individual cell lines. After cell inoculation, the microtiter plates are incubated at 37° C., 5% CO2, 95% air and 100% relative humidity for 24 h prior to addition of experimental drugs.
# After 24 h, two plates of each cell line are fixed in situ with TCA, to represent a measurement of the cell population for each cell line at the time of drug addition (Tz). Experimental drugs are solubilized in dimethyl sulfoxide at 400-fold the desired final maximum test concentration and stored frozen prior to use. At the time of drug addition, an aliquot of frozen concentrate is thawed and diluted to twice the desired final maximum test concentration with complete medium containing 50 μg/ml gentamicin. Additional four, 10-fold or ½ log serial dilutions are made to provide a total of five drug concentrations plus control. Aliquots of 100 μl of these different drug dilutions are added to the appropriate microtiter wells already containing 100 μl of medium, resulting in the required final drug concentrations.
# Following drug addition, the plates are incubated for an additional 48 h at 37° C., 5% CO2, 95% air, and 100% relative humidity. For adherent cells, the assay is terminated by the addition of cold TCA. Cells are fixed in situ by the gentle addition of 50 μl of cold 50% (w/v) TCA (final concentration, 10% TCA) and incubated for 60 minutes at 4° C. The supernatant is discarded, and the plates are washed five times with tap water and air dried. Sulforhodamine B (SRB) solution (100 μl) at 0.4% (w/v) in 1% acetic acid is added to each well, and plates are incubated for 10 minutes at room temperature. After staining, unbound dye is removed by washing five times with 1% acetic acid and the plates are air dried. Bound stain is subsequently solubilized with 10 mM trizma base, and the absorbance is read on an automated plate reader at a wavelength of 515 nm. For suspension cells, the methodology is the same except that the assay is terminated by fixing settled cells at the bottom of the wells by gently adding 50 μl of 80% TCA (final concentration, 16% TCA). Using the seven absorbance measurements [time zero, (Tz), control growth, (C), and test growth in the presence of drug at the five concentration levels (Ti)], the percentage growth is calculated at each of the drug concentrations levels. Percentage growth inhibition is calculated as: [(Ti−Tz)/(C−Tz)]×100 for concentrations for which Ti>/=Tz [(Ti−Tz)/Tz]×100 for concentrations for which Ti<Tz.
# Three dose response parameters are calculated for each experimental agent. […] The drug concentration resulting in total growth inhibition (TGI) is calculated from Ti=Tz. […]
# p53 = test: Western blot, p53 expression in MCF-7 cells; type: cell-based, human; settings: 24 hours, various concentrations
# Experimental: (§1) To further characterize the cell cycle effects of Compound 1 on human tumor cells, MCF-7 cells were treated for 24 hours with various concentrations of Compound 1, vinblastine, or TAXOL (paclitaxel). Cells were then harvested, lysed, and analyzed for levels of expression of p53 and WAF1 by Western Blot analyses. […] Compound 1 is identified as “149” in these figures. […] None of these treatments affected the expression of bcl-2 or P-tubulin in the MCF-7 cells.
# WAF1 = test: Western blot, WAF1 expression in MCF-7 cells; type: cell-based, human; settings: 24 hours, various concentrations
# Experimental: as §1
# [5] = tested on: A-10 rat smooth muscle cells; test: Microtubule structure, indirect immunofluorescence, A-10 cells; type: cell-based; settings: 24 hours; 625 nM TAXOL, 167 nM vinblastine, 900 nM Compound 1
# Experimental: Because of the morphological effects of Compound 1 on cultured cells and the NCI COMPARE analysis results described above, the effects of vinblastine, TAXOL (paclitaxel), and Compound 1 on microtubule structure were examined. For these studies, A-10 rat smooth muscle cells were used since they grow as flat monolayers that are amenable to imaging. The A-10 cells were treated for 24 hours with EtOH (control), 625 nM TAXOL (paclitaxel), 167 nM vinblastine, and 900 nM of Compound 1. Microtubules were then visualized by indirect immunofluoresence staining with B-tubulin antibodies. FIGS. 2a-d present representative fields for the control, TAXOL (paclitaxel), vinblastine, and Compound 1 (“149”), respectively. None of these compounds affected the morphology of stress fibers composed of microfilaments.
# [6] = read-out: Cytotoxicity IC50, MCF-7/VP, mean ± SEM for 3 experiments
# [7] = read-out: Cytotoxicity IC50, NCI/ADR, mean ± SEM for 3 experiments
# [8] = read-out: Cytotoxicity IC50, MCF-7, mean ± SEM for 3 experiments
# [9] = Homo sapiens, MCF7-VP, read-out: drug sensitivity (IC50), MCF-7/VP
# [10] = Homo sapiens, NCI/ADR-RES, read-out: drug sensitivity (IC50), NCI/ADR
# [11] = Homo sapiens, MCF7, read-out: drug sensitivity (IC50), MCF-7
# T1 sequence (P08183 whole entry): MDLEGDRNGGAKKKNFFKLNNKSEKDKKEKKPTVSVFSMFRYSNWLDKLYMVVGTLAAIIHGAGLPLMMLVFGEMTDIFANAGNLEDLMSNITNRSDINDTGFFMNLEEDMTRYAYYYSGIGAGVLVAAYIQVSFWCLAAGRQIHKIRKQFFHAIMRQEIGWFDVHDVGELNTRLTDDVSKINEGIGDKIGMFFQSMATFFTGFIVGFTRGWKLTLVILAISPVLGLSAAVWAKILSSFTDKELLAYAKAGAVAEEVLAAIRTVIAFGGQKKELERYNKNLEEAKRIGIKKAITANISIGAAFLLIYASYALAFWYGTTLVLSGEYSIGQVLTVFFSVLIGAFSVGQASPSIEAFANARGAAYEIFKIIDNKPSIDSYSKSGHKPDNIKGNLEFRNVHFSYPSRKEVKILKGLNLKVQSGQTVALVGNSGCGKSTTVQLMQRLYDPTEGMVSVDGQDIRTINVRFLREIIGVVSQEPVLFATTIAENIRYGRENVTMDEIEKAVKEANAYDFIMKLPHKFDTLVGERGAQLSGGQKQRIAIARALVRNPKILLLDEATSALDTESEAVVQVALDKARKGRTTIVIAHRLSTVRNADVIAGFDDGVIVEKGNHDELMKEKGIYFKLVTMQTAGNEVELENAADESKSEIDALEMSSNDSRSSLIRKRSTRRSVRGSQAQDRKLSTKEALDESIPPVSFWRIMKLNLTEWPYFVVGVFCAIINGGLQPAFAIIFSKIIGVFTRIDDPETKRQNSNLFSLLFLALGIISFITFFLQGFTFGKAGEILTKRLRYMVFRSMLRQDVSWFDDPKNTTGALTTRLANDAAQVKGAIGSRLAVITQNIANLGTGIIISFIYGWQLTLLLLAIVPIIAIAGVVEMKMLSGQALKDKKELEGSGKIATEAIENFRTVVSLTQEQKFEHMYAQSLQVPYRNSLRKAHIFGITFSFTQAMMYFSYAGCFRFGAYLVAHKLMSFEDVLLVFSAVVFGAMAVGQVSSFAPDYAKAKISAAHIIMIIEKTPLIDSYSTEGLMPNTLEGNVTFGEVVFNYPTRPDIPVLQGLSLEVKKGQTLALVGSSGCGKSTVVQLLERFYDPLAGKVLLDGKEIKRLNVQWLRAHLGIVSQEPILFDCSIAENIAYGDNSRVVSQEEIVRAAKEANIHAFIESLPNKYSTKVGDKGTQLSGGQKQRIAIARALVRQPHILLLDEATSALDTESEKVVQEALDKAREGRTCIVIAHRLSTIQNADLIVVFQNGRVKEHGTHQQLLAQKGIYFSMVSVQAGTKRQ
structure (smiles),measurement,setting,value
"N.N.[Cl][Pt][Cl] [Cisplatin, cisplatin, reference compound]",effect of P-glycoprotein / MRP1 overexpression on cell sensitivity (in words),[1],insensitive to transporter expression
same,Resistance (MCF-7/VP relative to MCF-7),MCF-7/VP cells,0.6
same,IC50,"MCF-7/VP cells; read-out: drug sensitivity (IC50), MCF-7/VP, Table 4, MRP1 overexpressing, mean ± SEM for 3 experiments",7 ± 2.9 µM
same,Resistance (NCI/ADR relative to MCF-7),NCI/ADR cells,1.1
same,IC50,"NCI/ADR cells; read-out: drug sensitivity (IC50), NCI/ADR, Table 4, P-glycoprotein overexpressing, mean ± SEM for 3 experiments",12.2 ± 4.2 µM
same,IC50,"MCF-7 cells; read-out: drug sensitivity (IC50), MCF-7, Table 4, mean ± SEM for 3 experiments",11.5 ± 4.1 µM
"COc1cc2c(c(OC)c1OC)-c1ccc(OC)c(=O)cc1[C@@H](NC(C)=O)CC2 [Colchicine, colchicine]",increase of the percentage of cells in the G2/M phases,[2],approximately 2 fold
same,"cell cycle distribution, G2/M",[2],11.9 ± 0.3
same,"cell cycle distribution, G9/G1",[2],84.1 ± 0.7
same,"cell cycle distribution, S",[2],4.0 ± 1.4
COc1ccc(CCc2cn(Cc3ccccc3)c3nc(N)nc(C)c23)cc1 [Compound 2],IC50,MCF-7/VP cells; [6],22.7 ± 3.7 µM
same,effect on P-glycoprotein-mediated resistance (in words),P-glycoprotein,dose-dependent sensitization
same,change of cytotoxic potency by substitution (in words),"[3]; T24, relative to unsubstituted Compound 5",decreased the cytotoxic potency
same,IC50,[3],31.7 ± 1.7 µM
same,IC50,NCI/ADR cells; [7],21.7 ± 4.4 µM
same,IC50,MCF-7 cells; [8],13 ± 3.5 µM
COc1ccccc1CCc1cn(Cc2ccccc2)c2nc(N)nc(C)c12 [Compound 4],"cytotoxic potency, better than the 3- or 4-OMe",[1],about 10 times
same,"cytotoxic potency, better than the unsubstituted phenyl analog Compound 5",[1],~5 times
same,effect of P-glycoprotein / MRP1 overexpression on cell sensitivity (in words),[1],eliminated any resistance due to overexpression of either P-glycoprotein or MRP1
same,"less potent as an antimitotic agent than the 3,4,5-triOMe analog",[1],about 10 times
same,cytotoxic potency (in words),[1]; all tested cell lines,substantially increased the potency toward all of the tested cell lines
same,"GI50 values, level across the tumor cell lines (in words)",[4],micromolar to millimolar range
same,IC50,MCF-7/VP cells; [6],2.6 ± 0.1 µM
same,more potent than the others in reversing P-glycoprotein-mediated resistance,P-glycoprotein; 50 nM vinblastine,approximately 10 fold
same,effect on P-glycoprotein-mediated resistance (in words),P-glycoprotein,dose-dependent sensitization
same,effect on P-glycoprotein-mediated resistance (in words),P-glycoprotein; listed as 2-OMe analog,effective at reversing P-glycoprotein mediated resistance
same,IC50,[3],2.5 ± 0.3 µM
same,IC50,NCI/ADR cells; [7],2.7 ± 0.4 µM
same,IC50,MCF-7 cells; [8],2.3 ± 0.6 µM
Cc1nc(N)nc2c1c(CCc1ccccc1)cn2Cc1ccccc1 [Compound 5],"GI50 values, level across the tumor cell lines (in words)",[4],millimolar or less range for 52 of the tumor cell lines; also recorded: micromolar GI50 values for three of the tumor cell lines
same,IC50,MCF-7/VP cells; [6],118 ± 6 µM
same,effect on P-glycoprotein-mediated resistance (in words),P-glycoprotein,dose-dependent sensitization
same,IC50,[3],12.7 ± 2.3 µM
same,IC50,NCI/ADR cells; [7],18.2 ± 7.4 µM
same,IC50,MCF-7 cells; [8],10.7 ± 4.7 µM
"CC(=O)O[C@H]1C(=O)[C@@]2(C)[C@H]([C@H](OC(=O)c3ccccc3)[C@]3(O)C[C@H](OC(=O)[C@H](O)[C@@H](NC(=O)c4ccccc4)c4ccccc4)C(C)=C1C3(C)C)[C@]1(OC(C)=O)CO[C@@H]1C[C@@H]2O [TAXOL (paclitaxel), paclitaxel]",level of expression of p53 (in words),p53,marked increases
same,IC50,MCF-7/VP cells; [9],0.0028 ± 0.0006 µM
same,Resistance (MCF-7/VP relative to MCF-7),MCF-7/VP cells,1.1
same,level of expression of WAF1 (in words),WAF1,marked increases
same,effect on microtubule structure (in words),[5],promoted increased staining of microtubule clusters
same,increase of the percentage of cells in the G2/M phases,[2],approximately 2 fold
same,"cell cycle distribution, G2/M",[2],10.5 ± 0.1
same,"cell cycle distribution, G9/G1",[2],67.3 ± 0.4
same,"cell cycle distribution, S",[2],22.2 ± 0.4
same,IC50,NCI/ADR cells; [10],2.7 ± 0.5 µM
same,Resistance (NCI/ADR relative to MCF-7),NCI/ADR cells,1080
same,IC50,MCF-7 cells; [11],0.0025 ± 0.0006 µM
"CC[C@]1(O)C[C@H]2CN(CCc3c([nH]c4ccccc34)[C@@](C(=O)OC)(c3cc4c(cc3OC)N(C=O)[C@H]3[C@@](O)(C(=O)OC)[C@H](OC(C)=O)[C@]5(CC)C=CCN6CC[C@]43[C@@H]65)C2)C1 [Vincristine, vincristine, reference compound]",effect of P-glycoprotein / MRP1 overexpression on cell sensitivity (in words),[1],overexpression of MRP1 also confers substantial resistance
same,IC50,MCF-7/VP cells; [9],0.0093 ± 0.0014 µM
same,Resistance (MCF-7/VP relative to MCF-7),MCF-7/VP cells,15.5
same,IC50,NCI/ADR cells; [10],0.1 µM
same,Resistance (NCI/ADR relative to MCF-7),NCI/ADR cells,167
same,IC50,MCF-7 cells; [11],0.0006 ± 0.0001 µM

# Reference: patent US8501752B2, “Methods for treating cancer and other pathological proliferating disorders by inhibiting mitosis using pyrrolo[2,3-d]pyrimidines” (Duquesne University of the Holy Ghost, priority 2005, dated 2013)
